In US9732046B2, “Substituted 1,2,4-triazines as tubulin inhibitors” (YM Biosciences Australia Pty Ltd., priority 2003, dated 2017):

Key:
Type in all cases: cell-based
[1] = tested on: K562 (Chronic Myeloid Leukemia); assay: Cellular growth inhibition assay (MTT), K562; conditions: Homo sapiens, Table 1, 40 hr incubation
Method: (§1) For screening purposes, compounds were diluted in 96 well plates at a concentration of 20 μM. Plates were warmed at 37° C. for 30 minutes before assay.
(§2) K562 (Chronic Myeloid Leukemia), PC3 (Prostate Cancer), and DU145 (Prostate Cancer) were obtained from the American Type Culture Collection (ATCC). K562 was grown in RPMI, with 10% FBS with Glutamx added. DU145 cells were cultured in DMED, with 10% FBS and Glutamx and MEM non-essential amino acids added. PC3 cells were grown in F12K medium, with 10% FBS and Glutamx and MEM non-essential amino acids added. All cells were grown at 37° C. in 5% CO2.
(§3) Cell suspensions were prepared by harvesting cells from culture. (Cells used in this test should be in later log phase growth and high viability.) Cells were diluted in correct growth medium to 1.1× final concentration (from 50000 cell/mL to 200,000 cell/mL, depending on cell line).
(§4) Compounds to be tested were added (10 μL, 10× final concentration) to a flat bottom 96-well plate. The cellular suspension (90 μL per well) was added, and the plate incubated for 40 hr at 37° C., 5% CO2. MTT (20 μL per well, 5 mg/mL in PBS) was added and the plates were returned to the incubator for a further 6 hours. Lysis buffer (100 μL per well, 10% SDS, 0.01N HCl) was added and the plate stored in the incubator overnight. The plate was then read at 590 nm.

[2] = biological target: T1, TelJak2 (BaF3 TELJAK cells, TEL/Jak2 fusion) (Homo sapiens, UniProt O60674); assay: Cellular growth inhibition assay (MTT), BaF3 TEL:JAK2 cell line; conditions: Table 1, 40 hr incubation
T1 construct: The regions encompassing the kinase domain of JAK2 (nucleotides 2994-3914); expressed in transfected cells; host or cells: BaF3 cells bearing the pTET-off plasmid, transfected with pTELJAK2 (pTRE2 vector); the other entry of the earlier key: ETV6 (P41212, Transcription factor ETV6)
Method: as §1
(§5) The coding region encompassing nucleotides 1-487 of TEL was amplified by PCR using the oligonucleotides 5TEL (5′-GGAGGATCCTGATCTCTCTCGCTGTGAGAC-3′) (SEQ ID NO: 1) and 3TEL (5′-AGGC GTCGACTTCTTCTTGATGGTTCTG-3′) (SEQ ID NO: 2) and U937 mRNA as template. A BamH I site was incorporated into the 5TEL primer, and a Sal I site was incorporated into the 3TEL primer. The regions encompassing the kinase domain of JAK2 (nucleotides 2994-3914; JAK2F 5′-ACGC GTCGACGGTGCCTTTGAAGACCGGGAT-3 (SEQ ID NO: 3); JAK2R 5′-ATAGTTTAGCGGCCGCTCAGAATGAAGGTCATTT-3′) (SEQ ID NO: 4) and JAK3 (nucleotides 2520-3469; JAK3F 5′-GAAGTCGACTATGCCTGCCAAGACCCCACGATCTT-3′ (SEQ ID NO: 5); JAK3R 5′-GGATCTAGACTATGAAAAGGACAGGGAGTGGTGTTT-3′ (SEQ ID NO: 6)) were generated by PCR using Taq DNA polymerase (Gibco/BRL) and U937 mRNA as template. A Sal I site was incorporated into the forward primer of JAK2 and JAK3, a Not I site was incorporated into the JAK2 reverse primer and a Xba I site was added to the reverse primer of JAK3.
(§6) A TEL/Jak2 fusion was generated by digestion of the TELPCR product with BamH I/Sa1 I, digestion of the JAK2 PCR product with Sa1 I/Not I followed by ligation and subcloning into the mammalian expression Vector pTRE 2 (Clontech) digested with BamH I-Not I (pTELJAK2). For JAK3 Sa1 I/Not I cleaved kinase domain PCR product was ligated with BamH I/Sa1 I cleaved TELproduct followed by ligation into BamH I/Not I cleaved pTRE2 (pTELJAK3).
(§7) The growth factor dependent myelomonocytic cell line BaF3 bearing the pTET-off plasmid (Clontech) was transfected with either pTELJAK2 or pTELJAK3 and the cells selected for factor independent growth. BaF 3 wild type cells were cultured in DMEM 10% FCS, 10% WEHI 3B conditioned medium. BaF3 TELJAK cells were cultured in DMEM 10% Tet-System Approved FBS (without WEHI 3B conditioned medium).
as §3, §4

[3] = biological target: T2, TelJak3 (BaF3 TELJAK cells, TEL/JAK3 fusion) (Homo sapiens, UniProt P52333); assay: Cellular growth inhibition assay (MTT), BaF3 TEL:JAK3 cell line; conditions: Table 1, 40 hr incubation
T2 construct: For JAK3 Sa1 I/Not I cleaved kinase domain PCR product was ligated with BamH I/Sa1 I cleaved TELproduct; expressed in transfected cells; host or cells: BaF3 cells bearing the pTET-off plasmid, transfected with pTELJAK3 (pTRE2 vector); the other entry of the earlier key: ETV6 (P41212, Transcription factor ETV6)
Method: as §1, §5, §6, §7, §3, §4

PC3 (Prostate Cancer) = assay: Cellular growth inhibition assay (MTT), PC3; conditions: Table 1, 40 hr incubation
Method: as §1, §2, §3, §4

DU145 (Prostate Cancer) = assay: Cellular growth inhibition assay (MTT), DU145; conditions: Homo sapiens, DU-145, Table 1, 40 hr incubation
Method: as §1, §2, §3, §4

T1 sequence (O60674 with tags, fused parts or gaps): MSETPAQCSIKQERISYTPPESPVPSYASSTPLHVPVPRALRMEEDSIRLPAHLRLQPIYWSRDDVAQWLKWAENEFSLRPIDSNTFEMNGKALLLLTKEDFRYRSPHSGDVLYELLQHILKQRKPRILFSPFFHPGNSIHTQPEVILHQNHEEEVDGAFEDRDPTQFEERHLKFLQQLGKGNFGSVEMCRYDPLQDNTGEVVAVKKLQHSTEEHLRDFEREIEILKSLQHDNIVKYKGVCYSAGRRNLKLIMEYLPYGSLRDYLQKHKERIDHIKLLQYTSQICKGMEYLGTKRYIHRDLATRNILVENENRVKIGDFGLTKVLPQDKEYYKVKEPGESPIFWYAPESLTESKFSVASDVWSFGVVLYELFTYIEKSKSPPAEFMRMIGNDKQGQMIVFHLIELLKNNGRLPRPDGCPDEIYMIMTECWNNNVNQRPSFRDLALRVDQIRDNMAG
T2 sequence (P52333 with tags, fused parts or gaps): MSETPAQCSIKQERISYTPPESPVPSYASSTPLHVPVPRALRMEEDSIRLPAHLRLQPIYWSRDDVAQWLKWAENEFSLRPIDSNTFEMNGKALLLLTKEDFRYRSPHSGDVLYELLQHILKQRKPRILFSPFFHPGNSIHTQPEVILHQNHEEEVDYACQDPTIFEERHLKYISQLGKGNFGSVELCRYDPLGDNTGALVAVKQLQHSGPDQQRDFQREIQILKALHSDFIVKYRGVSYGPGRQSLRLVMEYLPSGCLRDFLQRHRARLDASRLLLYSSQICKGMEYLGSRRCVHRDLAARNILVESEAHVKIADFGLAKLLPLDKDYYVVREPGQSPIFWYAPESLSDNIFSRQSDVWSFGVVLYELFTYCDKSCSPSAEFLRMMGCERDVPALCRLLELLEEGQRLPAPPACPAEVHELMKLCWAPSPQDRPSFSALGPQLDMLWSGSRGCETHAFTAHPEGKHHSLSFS

Structure (SMILES) | inhibition at 20 µM [1] [%] | inhibition at 20 µM [2] [%] | inhibition at 20 µM [3] [%] | inhibition at 20 µM (PC3 (Prostate Cancer)) [%] | inhibition at 20 µM (DU145 (Prostate Cancer)) [%]
CCCC(Nc1cncc(-c2ccc(C(=O)N3CCOCC3)cc2)n1)c1ccccc1 (stereo not drawn) | < 50 | > 50 | > 50 | < 50 | –
CCCC(Nc1cncc(-c2ccc(C(=O)N3CCN(C)CC3)cc2)n1)c1ccccc1 (stereo not drawn) | < 50 | > 50 | > 50 | < 50 | –
CCCC(Nc1cncc(-c2ccc(CN3CCCCC3)cc2)n1)c1ccccc1 (stereo not drawn) | < 50 | > 50 | > 50 | < 50 | < 50
CCCC(Nc1cncc(-c2ccc(CNC(=O)C3CCC(=O)N3)cc2)n1)c1ccccc1 (stereo not drawn) | > 50 | > 50 | > 50 | < 50 | < 50
CCCC(Nc1cncc(-c2ccc(CN3CCC(O)CC3)cc2)n1)c1ccccc1 (stereo not drawn) | > 50 | > 50 | > 50 | < 50 | < 50
CCCC(Nc1cncc(-c2ccc(CN3CCOCC3)cc2)n1)c1ccccc1 (stereo not drawn) | < 50 | > 50 | < 50 | < 50 | < 50
CCCC(Nc1cncc(-c2ccc(C(=O)NCCCCCN)c(C)c2)n1)c1cccnc1 (stereo not drawn) | > 50 | > 50 | > 50 | < 50 | < 50
COc1cc(-c2nc(N[C@H](C)c3ccccc3)nnc2C)cc(OC)c1OC | < 50 | > 50 | > 50 | < 50 | < 50
COc1cc(-c2ncc(C)c(NC(CCO)c3ccccc3)n2)ccc1O (stereo not drawn) | > 50 | > 50 | > 50 | < 50 | > 50
COc1cc(-c2nc(N[C@H](C)c3ccccc3)nnc2C)ccc1O | > 50 | > 50 | > 50 | < 50 | < 50
CCCC(Nc1cncc(-c2ccc(OCCCN3CCOCC3)c(OC)c2)n1)c1cccnc1 (stereo not drawn) | < 50 | > 50 | > 50 | < 50 | < 50
CCCC(Nc1cncc(-c2ccc(NC(=O)NCC)cc2)n1)c1cccnc1 (stereo not drawn) | > 50 | > 50 | > 50 | < 50 | < 50
CCCC(Nc1cncc(-c2ccc(OCCN(CC)CC)c(OC)c2)n1)c1cncc(C)c1 (stereo not drawn) | > 50 | > 50 | > 50 | < 50 | < 50
CCCC(Nc1cncc(-c2ccc(CN3CCC[C@H]3CO)cc2)n1)c1ccccc1 (stereo partly drawn) | > 50 | > 50 | > 50 | < 50 | < 50
CCCC(Nc1nnc(C)c(-c2cc(OC)c(OC)c(OC)c2)n1)c1ccccc1 (stereo not drawn) | > 50 | > 50 | > 50 | < 50 | < 50
CCCC(Nc1cncc(-c2ccc(OCCCN3CCOCC3)c(OC)c2)n1)c1ccccc1 (stereo not drawn) | > 50 | > 50 | > 50 | > 50 | < 50
CCCC(Nc1cncc(-c2ccc(NC(=O)c3cccnc3)c(OC)c2)n1)c1cccnc1 (stereo not drawn) | > 50 | > 50 | > 50 | < 50 | < 50
CCCC(Nc1cncc(-c2ccc(C(=O)NCCCN(CC)CC)cc2)n1)c1ccccc1 (stereo not drawn) | > 50 | > 50 | > 50 | < 50 | > 50
CCCC(Nc1cncc(-c2ccc(CN(C)C)cc2)n1)c1ccccc1 (stereo not drawn) | > 50 | > 50 | > 50 | < 50 | < 50
CCCC(Nc1cncc(-c2ccc(NC(=O)N3CCN(C)CC3)c(OC)c2)n1)c1cccnc1 (stereo not drawn) | < 50 | > 50 | > 50 | > 50 | < 50
CCNC(=O)Nc1ccc(-c2cncc(NC(C)c3cccnc3)n2)cc1OC (stereo not drawn) | – | > 50 | > 50 | < 50 | –
CCCC(Nc1cncc(-c2ccc(NC(=O)NCCCN(CC)CC)c(OC)c2)n1)c1cccnc1 (stereo not drawn) | < 50 | > 50 | > 50 | < 50 | < 50
CCCC(Nc1cncc(-c2ccc(CN3CCN(C)CC3)cc2)n1)c1ccccc1 (stereo not drawn) | < 50 | > 50 | > 50 | < 50 | < 50
CCCC(Nc1cncc(-c2ccc(OCCCCN3CCOCC3)c(OC)c2)n1)c1ccccc1 (stereo not drawn) | > 50 | > 50 | > 50 | < 50 | < 50
CCCC(Nc1cncc(-c2ccc(OCCCN3CCN(C)CC3)c(OC)c2)n1)c1cccnc1 (stereo not drawn) | < 50 | > 50 | > 50 | < 50 | < 50
CCCC(Nc1cncc(-c2ccc(NC(=O)C3CCNCC3)c(OC)c2)n1)c1cccnc1 (stereo not drawn) | > 50 | > 50 | < 50 | < 50 | < 50
CCCC(Nc1cncc(-c2ccc(OCCCN3CCCC3)c(OC)c2)n1)c1cccnc1 (stereo not drawn) | > 50 | > 50 | > 50 | < 50 | < 50
CCC[C@H](Nc1cncc(-c2ccc(NC(=O)CN(C)C)c(OC)c2)n1)c1cccnc1 | > 50 | > 50 | > 50 | > 50 | > 50
CCCC(Nc1cncc(-c2ccc(C(=O)NCCCN3CCOCC3)cc2)n1)c1ccccc1 (stereo not drawn) | < 50 | > 50 | > 50 | < 50 | < 50
